Values of other authors as cited in patent publication US12336999B2, “Modified release formulations of 2-[3-[4-amino-3-(2-fluoro-4-phenoxy-phenyl) pyrazolo[3,4-d] pyrimidin-1-yl]piperidine-1-carbonyl]-4-methyl-4-[4-(oxetan-3-yl) piperazin-1-yl]pent-2-enenitrile” (Principia Biopharma Inc., priority 2016, dated 2025).
Where two headings read alike, the source gives them in different places.

C=CC(=O)N1CCC[C@@H](n2nc(-c3ccc(Oc4ccccc4)cc3)c3c(N)ncnc32)C1 [ibrutinib]
bioavailability as determined by AUC (administered intraduodenally): 100% | bioavailability as determined by AUC (direct oral administration): 21%
